Experimental data taken from the NIST ThermoML archive (doi:10.1021/je900596d).

Settings: for mass density: Vibrating tube method; for vapor or sublimation pressure: Closed cell (Static) method

FC(F)=C(F)C(F)(F)F [hexafluoropropene]
Settings	mass density [kg/m3]
357.06 K, 1651 kPa, Fluid (supercritical or subcritical phases)	106.72
357.06 K, 1667.9 kPa, Fluid (supercritical or subcritical phases)	108.13
357.06 K, 1685.3 kPa, Fluid (supercritical or subcritical phases)	109.66
357.06 K, 1702 kPa, Fluid (supercritical or subcritical phases)	111.18
357.06 K, 1718.9 kPa, Fluid (supercritical or subcritical phases)	112.75
357.06 K, 1735.9 kPa, Fluid (supercritical or subcritical phases)	114.23
357.06 K, 1753 kPa, Fluid (supercritical or subcritical phases)	115.8
357.06 K, 1769.9 kPa, Fluid (supercritical or subcritical phases)	117.29
357.06 K, 1786.9 kPa, Fluid (supercritical or subcritical phases)	118.92
357.06 K, 1803 kPa, Fluid (supercritical or subcritical phases)	120.39
357.06 K, 1819.2 kPa, Fluid (supercritical or subcritical phases)	121.89
357.06 K, 1847.5 kPa, Fluid (supercritical or subcritical phases)	124.55
357.06 K, 1875.7 kPa, Fluid (supercritical or subcritical phases)	127.36
357.06 K, 1903.2 kPa, Fluid (supercritical or subcritical phases)	130.04
357.06 K, 1931.1 kPa, Fluid (supercritical or subcritical phases)	132.82
357.06 K, 1957.3 kPa, Fluid (supercritical or subcritical phases)	135.5
357.06 K, 1986 kPa, Fluid (supercritical or subcritical phases)	138.47
357.06 K, 2038.9 kPa, Fluid (supercritical or subcritical phases)	144.14
357.06 K, 2064.4 kPa, Fluid (supercritical or subcritical phases)	146.83
357.06 K, 2091.5 kPa, Fluid (supercritical or subcritical phases)	149.92
357.06 K, 2116.5 kPa, Fluid (supercritical or subcritical phases)	152.72
357.06 K, 2145.2 kPa, Fluid (supercritical or subcritical phases)	156.08
357.06 K, 2172.7 kPa, Fluid (supercritical or subcritical phases)	159.34
357.06 K, 2200.4 kPa, Fluid (supercritical or subcritical phases)	162.66
357.06 K, 2225 kPa, Fluid (supercritical or subcritical phases)	165.74
357.06 K, 2253.6 kPa, Fluid (supercritical or subcritical phases)	169.3
357.06 K, 2283.1 kPa, Fluid (supercritical or subcritical phases)	173.12
357.06 K, 2311 kPa, Fluid (supercritical or subcritical phases)	176.88
357.06 K, 2341.3 kPa, Fluid (supercritical or subcritical phases)	180.98
357.06 K, 2367.5 kPa, Fluid (supercritical or subcritical phases)	184.68
357.06 K, 2394.8 kPa, Fluid (supercritical or subcritical phases)	188.59
357.06 K, 2419.3 kPa, Fluid (supercritical or subcritical phases)	192.26
357.06 K, 2446.6 kPa, Fluid (supercritical or subcritical phases)	196.5
357.06 K, 2475.8 kPa, Fluid (supercritical or subcritical phases)	201.14
357.06 K, 2500.5 kPa, Fluid (supercritical or subcritical phases)	205.14
357.06 K, 2527.1 kPa, Fluid (supercritical or subcritical phases)	209.62
357.06 K, 2552.5 kPa, Fluid (supercritical or subcritical phases)	214.03
357.06 K, 2579.2 kPa, Fluid (supercritical or subcritical phases)	218.88
357.06 K, 2607.1 kPa, Fluid (supercritical or subcritical phases)	224.15
357.06 K, 2634.5 kPa, Fluid (supercritical or subcritical phases)	229.51
357.06 K, 2660.8 kPa, Fluid (supercritical or subcritical phases)	234.97
357.06 K, 2686.6 kPa, Fluid (supercritical or subcritical phases)	240.49
357.06 K, 2714.4 kPa, Fluid (supercritical or subcritical phases)	246.83
357.06 K, 2743.6 kPa, Fluid (supercritical or subcritical phases)	253.76
357.06 K, 2771 kPa, Fluid (supercritical or subcritical phases)	260.83
357.06 K, 2795.2 kPa, Fluid (supercritical or subcritical phases)	267.52
357.06 K, 2819.6 kPa, Fluid (supercritical or subcritical phases)	274.69
357.06 K, 2846 kPa, Fluid (supercritical or subcritical phases)	283.07
357.06 K, 2871.1 kPa, Fluid (supercritical or subcritical phases)	291.79
357.06 K, 2896.7 kPa, Fluid (supercritical or subcritical phases)	302.07
357.06 K, 2920.7 kPa, Fluid (supercritical or subcritical phases)	312.54
357.06 K, 2945.8 kPa, Fluid (supercritical or subcritical phases)	324.88
357.06 K, 2970.4 kPa, Fluid (supercritical or subcritical phases)	338.77
357.06 K, 2995.1 kPa, Fluid (supercritical or subcritical phases)	355.46
357.06 K, 3000.2 kPa, Fluid (supercritical or subcritical phases)	359.35
357.06 K, 3002.3 kPa, Fluid (supercritical or subcritical phases)	361.25
357.06 K, 3004.8 kPa, Fluid (supercritical or subcritical phases)	363.25
357.06 K, 3007 kPa, Fluid (supercritical or subcritical phases)	365.19
357.06 K, 3009.1 kPa, Fluid (supercritical or subcritical phases)	367.24
357.06 K, 3011.2 kPa, Fluid (supercritical or subcritical phases)	369.24
357.06 K, 3013.5 kPa, Fluid (supercritical or subcritical phases)	371.38
357.06 K, 3017.2 kPa, Fluid (supercritical or subcritical phases)	375.58
357.06 K, 3020.4 kPa, Fluid (supercritical or subcritical phases)	379.51
357.06 K, 3023.1 kPa, Fluid (supercritical or subcritical phases)	383.27
357.06 K, 3025.3 kPa, Fluid (supercritical or subcritical phases)	386.99
357.06 K, 3027.3 kPa, Fluid (supercritical or subcritical phases)	391.04
358 K, 3077.4 kPa, Liquid	720.16
358 K, 3079.5 kPa, Liquid	727.89
358 K, 3081.5 kPa, Liquid	734.5
358 K, 3083.8 kPa, Liquid	736.72
358 K, 3086 kPa, Liquid	740.82
358 K, 3088.2 kPa, Liquid	744.57
358 K, 3109.3 kPa, Liquid	770.42
358 K, 3111.5 kPa, Liquid	772.98
358 K, 3116.7 kPa, Liquid	777.53
358 K, 3119.3 kPa, Liquid	780.08
358 K, 3122.7 kPa, Liquid	783.21
358 K, 3129.1 kPa, Liquid	787.86
358 K, 3135.8 kPa, Liquid	792.11
358 K, 3142.4 kPa, Liquid	796.64
358 K, 3148.6 kPa, Liquid	799.79
358 K, 3156.4 kPa, Liquid	804.75
358 K, 3177.8 kPa, Liquid	815.22
358 K, 3185.3 kPa, Liquid	818.23
358 K, 3192.2 kPa, Liquid	821.21
358 K, 3200.1 kPa, Liquid	824.15
358 K, 3210.8 kPa, Liquid	828.42
358 K, 3221.1 kPa, Liquid	831.96
358 K, 3231.6 kPa, Liquid	835.41
358 K, 3241.7 kPa, Liquid	838.72
358 K, 3252.2 kPa, Liquid	841.71
358 K, 3262.8 kPa, Liquid	844.89
358 K, 3273.9 kPa, Liquid	847.83
358 K, 3295.3 kPa, Liquid	853.38
358 K, 3306 kPa, Liquid	855.88
358 K, 3329 kPa, Liquid	860.99
358 K, 3350.7 kPa, Liquid	865.7
358 K, 3372.9 kPa, Liquid	869.87
358 K, 3394.9 kPa, Liquid	874.14
358 K, 3416.1 kPa, Liquid	877.89
358 K, 3438.3 kPa, Liquid	881.69
358 K, 3460.7 kPa, Liquid	885.32
358 K, 3482.9 kPa, Liquid	888.76
358 K, 3504.8 kPa, Liquid	892.14
358 K, 3528.7 kPa, Liquid	895.48
358 K, 3550.1 kPa, Liquid	898.37
358 K, 3572 kPa, Liquid	901.37
358 K, 3593.3 kPa, Liquid	903.96
358 K, 3626 kPa, Liquid	907.95
358 K, 3637.5 kPa, Liquid	909.42
358 K, 3650.1 kPa, Liquid	910.79
358 K, 3672 kPa, Liquid	913.13
358 K, 3692.4 kPa, Liquid	915.48
358 K, 3737.5 kPa, Liquid	920.3
358 K, 3781.6 kPa, Liquid	924.71
358 K, 3805.3 kPa, Liquid	927.04
358 K, 3827.1 kPa, Liquid	929.16
358 K, 3849.3 kPa, Liquid	931.26
358 K, 3870.8 kPa, Liquid	933.33
358 K, 3892.8 kPa, Liquid	935.23
358 K, 3914.1 kPa, Liquid	937.13
358 K, 3959.7 kPa, Liquid	940.96
358 K, 3983.8 kPa, Liquid	943.01
358 K, 4012.7 kPa, Liquid	945.18
358 K, 4046.1 kPa, Liquid	947.77
358 K, 4078.7 kPa, Liquid	950.34
358 K, 4111.6 kPa, Liquid	952.85
358 K, 4143.9 kPa, Liquid	955.16
358 K, 4176.6 kPa, Liquid	957.49

Liquid
Settings	vapor or sublimation pressure [kPa]
357.06 K	3017.5
357.27 K	3031
357.47 K	3044.2
357.56 K	3050.4
